For twelve compounds, IC50 results are on record in patent US9795607B2, “Substituted pyrrolopyrimidine compounds, compositions thereof, and methods of treatment therewith” (Signal Pharmaceutical, LLC, priority 2013, dated 2017).

The assay concerns Triple negative breast cancer cell line CAL51. Briefly: Cell Titer Glo proliferation assay, CAL51. The format is cell-based. Conditions: Homo sapiens, CAL-51, CAL51 cell proliferation, read-out: Act. Level. On the procedure: Cell Titer Glo Proliferation Assay.
Triple negative breast cancer cell line CAL51 was purchased from DSMZ. […] Allcell lines were maintained in growth media consisting of 90% high glucose Dulbecco's Modified Eagle Medium or RPMI1640 (Invitrogen), 10% fetal bovine serum (Hyclone), and 2 mM L-glutamine (Invitrogen). […] After overnight culture, compound stock (30 mM) was diluted serially in DMSO, further diluted in growth media, and was added to each well as a 10× concentrated solution in a volume of 11 μL, mixed, and allowed to incubate with cells. The compound vehicle (DMSO) was maintained at a final concentration of 0.2% in all wells. After 72 h, 100 μL of Cell Titer Glo solution (Promega) was added to each well of the 96-well plate. The plate was placed on a shaker for 2 minutes. After 10 minutes incubation, the luminescence signal was detected with Envision microplate reader (Perkin Elmer).
For orientation: In ATP-based viability assays light output follows the ATP content of the culture.

Where two headings read alike, the source gives them in different places. Bounds are passed on as bounds.

Take `CNC(=O)c1ccc(Nc2nc(OC3CCC(O)CC3)c3c(-c4ccc5nc(C)oc5c4)c[nH]c3n2)c(OC)c1` (stereo not drawn) [Example 137, 4-(4-((1r,4r)-4-hydroxycyclohexyloxy)-5-(2-methylbenzo[d]oxazol-6-yl)-7H-pyrrolo[2,3-d]pyrimidin-2-ylamino)-3-methoxy-N-methylbenzamide]: for the setting “activity level class of IC50”, the IC50 was less than 100 nM.
`CNC(=O)c1ccc(Nc2nc(OC3CCC(C)(O)CC3)c3c(-c4ccc5nc(C)oc5c4)c[nH]c3n2)c(OC)c1` (stereo not drawn) [Example 205, 4-(4-((1r,4r)-4-hydroxy-4-methylcyclohexyloxy)-5-(2-methylbenzo[d]oxazol-6-yl)-7H-pyrrolo[2,3-d]pyrimidin-2-ylamino)-3-methoxy-N-methylbenzamide]: the IC50 (Cell Titer Glo) is less than 100 nM.
On to `CNC(=O)c1ccc(Nc2nc(OC3CC3)c3c(-c4ccn(C)n4)c[nH]c3n2)c(OC)c1` [Example 218, 4-(4-cyclopropoxy-5-(1-methyl-1H-pyrazol-3-yl)-7H-pyrrolo[2,3-d]pyrimidin-2-ylamino)-3-methoxy-N-methylbenzamide], for which the IC50 (Cell Titer Glo) was 1000 to 10000 nM.
As to `CNC(=O)c1ccc(Nc2nc(OC3CCCC3)c3c(-c4ccc(C(=O)OC)cc4)c[nH]c3n2)c(OC)c1` [Example 318, methyl 4-(4-(cyclopentyloxy)-2-(2-methoxy-4-(methylcarbamoyl)phenylamino)-7H-pyrrolo[2,3-d]pyrimidin-5-yl)benzoate], the IC50 (Cell Titer Glo) fell in the range of 1000 to 10000 nM.
As for `CNC(=O)c1ccc(Nc2nc(OC3CCCC3)c3c(-c4ccc(F)cc4C)c[nH]c3n2)c(OC)c1` [Example 319, 4-(4-(cyclopentyloxy)-5-(4-fluoro-2-methylphenyl)-7H-pyrrolo[2,3-d]pyrimidin-2-ylamino)-3-methoxy-N-methylbenzamide], the IC50 (Cell Titer Glo) is 1000 to 10000 nM.
Take `CNC(=O)c1ccc(Nc2nc(OC3CCCC3)c3c(-c4ccc(OC)cc4OC)c[nH]c3n2)c(OC)c1` [Example 320, 4-(4-(cyclopentyloxy)-5-(2,4-dimethoxyphenyl)-7H-pyrrolo[2,3-d]pyrimidin-2-ylamino)-3-methoxy-N-methylbenzamide]: for the setting “Cell Titer Glo”, the IC50 lay within 1000 to 10000 nM.
The same measure, in the same setting: with `CNC(=O)c1ccc(Nc2nc(OC3CCCC3)c3c(-c4c(C)noc4C)c[nH]c3n2)c(OC)c1` [Example 321, 4-(4-(cyclopentyloxy)-5-(3,5-dimethylisoxazol-4-yl)-7H-pyrrolo[2,3-d]pyrimidin-2-ylamino)-3-methoxy-N-methylbenzamide] the figure was 1000 to 10000 nM.
Take `CNC(=O)c1ccc(Nc2nc(OC3CCCC3)c3c(-c4cccc(N(C)C)c4)c[nH]c3n2)c(OC)c1` [Example 322, 4-(4-(cyclopentyloxy)-5-(3-(dimethylamino)phenyl)-7H-pyrrolo[2,3-d]pyrimidin-2-ylamino)-3-methoxy-N-methylbenzamide]: the IC50 (Cell Titer Glo) was 400 to 1000 nM.
On to `CNC(=O)c1ccc(Nc2nc(OC3CCCC3)c3c(-c4cccc(O)c4)c[nH]c3n2)c(OC)c1` [Example 323, 4-(4-(cyclopentyloxy)-5-(3-hydroxyphenyl)-7H-pyrrolo[2,3-d]pyrimidin-2-ylamino)-3-methoxy-N-methylbenzamide], for which the IC50 (Cell Titer Glo) was less than 100 nM.
For the compound `CNC(=O)c1ccc(Nc2nc(OC3CCCC3)c3c(-c4cccc(C#N)c4)c[nH]c3n2)c(OC)c1` [Example 324, 4-(5-(3-cyanophenyl)-4-(cyclopentyloxy)-7H-pyrrolo[2,3-d]pyrimidin-2-ylamino)-3-methoxy-N-methylbenzamide], the IC50 (Cell Titer Glo) is 1000 to 10000 nM.
In the case of `CNC(=O)c1ccc(Nc2nc(OC3CCOCC3)c3c(-c4cncc(OC)c4)c[nH]c3n2)c(OC)c1` [Example 325, 3-methoxy-4-(5-(5-methoxypyridin-3-yl)-4-(tetrahydro-2H-pyran-4-yloxy)-7H-pyrrolo[2,3-d]pyrimidin-2-ylamino)-N-methylbenzamide], where the note is “Cell Titer Glo”, the IC50 was 100 to 400 nM.
In the case of `CNC(=O)c1ccc(Nc2nc(OCCOC)c3c(-c4cnn(C)c4)c[nH]c3n2)c(OC)c1` [Example 326, 3-methoxy-4-(4-(2-methoxyethoxy)-5-(1-methyl-1H-pyrazol-4-yl)-7H-pyrrolo[2,3-d]pyrimidin-2-ylamino)-N-methylbenzamide], the IC50 (Cell Titer Glo) is less than 100 nM.
